Reference: ChEMBL document CHEMBL3885861, “Open TG-GATES”

Species on record: Rattus norvegicus
Experiment: Open TG-GATES - Regimen: Single
Type: toxicity, organism-based, Sprague-Dawley
Parameters: regimen Single, gender Male, age 6 weeks
Details: in vivo, po, 45 mg/kg, route gavage, dose level High; for APTT / Bas / Eos / Fbg / Hb / Ht / Lym / MCH / MCHC / MCV / Mono / Neu / PT / Plat / RBC / Ret / WBC: tissue Blood; for KIDNEY_L / KIDNEY_R / KIDNEY_TOTAL: tissue Kidney; for LIVER: tissue Liver; for A/G / ALP / ALT / AST / BUN / CRE / Ca / Cl / DBIL / GLC / IP / K / LDH / Na / PL / RALB / TBIL / TC / TG / TP / gamma-GTP: tissue Plasma

Compound: CC(=N)S [THIOACETAMIDE]
- TERMINAL_BW (3 h): 189.5 g
- APTT (3 h): 17.3 s
- Bas (3 h): 0%
- Eos (3 h): 0.6%
- Fbg (3 h): 232.5 mg/dL
- Hb (3 h): 13.5 g/dL
- Ht (3 h): 41%
- Lym (3 h): 71.2%
- MCH (3 h): 21.6 pg
- MCHC (3 h): 33%
- MCV (3 h): 65.4 fL
- Mono (3 h): 8.6%
- Neu (3 h): 20%
- PT (3 h): 12.4 s
- Plat (3 h): 115.5 x10_4/uL
- RBC (3 h): 627 x10_4/ul
- Ret (3 h): 9.5%
- WBC (3 h): 129.7 x10_2/uL
- KIDNEY_L (3 h): 0.8 g
- KIDNEY_R (3 h): 0.8 g
- KIDNEY_TOTAL (3 h): 1.7 g
- LIVER (3 h): 8.7 g
- A/G (3 h): 2
- ALP (3 h): 923 IU/L
- ALT (3 h): 36 IU/L
- AST (3 h): 73.6 IU/L
- BUN (3 h): 13.6 mg/dL
- CRE (3 h): 0.5 mg/dL
- Ca (3 h): 10.9 mg/dL
- Cl (3 h): 104.6 meq/L
- DBIL (3 h): 0 mg/dL
- GLC (3 h): 169.2 mg/dL
- IP (3 h): 9.7 mg/dL
- K (3 h): 4.4 meq/L
- LDH (3 h): 200.6 IU/L
- Na (3 h): 139.6 meq/L
- PL (3 h): 137.6 mg/dL
- RALB (3 h): 3.8 g/dL
- TBIL (3 h): 0.4 mg/dL
- TC (3 h): 84 mg/dL
- TG (3 h): 54.8 mg/dL
- TP (3 h): 5.6 g/dL
- gamma-GTP (3 h): 2 IU/L
- TERMINAL_BW (6 h): 187 g
- APTT (6 h): 17.2 s
- Bas (6 h): 0%
- Eos (6 h): 0.2%
- Fbg (6 h): 230.4 mg/dL
- Hb (6 h): 13.7 g/dL
- Ht (6 h): 41.3%
- Lym (6 h): 71%
- MCH (6 h): 21.8 pg
- MCHC (6 h): 33.1%
- MCV (6 h): 66 fL
- Mono (6 h): 6.2%
- Neu (6 h): 22.2%
- PT (6 h): 12.9 s
- Plat (6 h): 104.7 x10_4/uL
- RBC (6 h): 627.2 x10_4/ul
- Ret (6 h): 9.9%
- WBC (6 h): 118 x10_2/uL
- KIDNEY_L (6 h): 0.8 g
- KIDNEY_R (6 h): 0.8 g
- KIDNEY_TOTAL (6 h): 1.6 g
- LIVER (6 h): 8 g
- A/G (6 h): 1.9
- ALP (6 h): 836.6 IU/L
- ALT (6 h): 33.8 IU/L
- AST (6 h): 75.2 IU/L
- BUN (6 h): 10.2 mg/dL
- CRE (6 h): 0.6 mg/dL
- Ca (6 h): 10.4 mg/dL
- Cl (6 h): 104.4 meq/L
- DBIL (6 h): 0.024 mg/dL
- GLC (6 h): 162.4 mg/dL
- IP (6 h): 9.9 mg/dL
- K (6 h): 4.7 meq/L
- LDH (6 h): 155.4 IU/L
- Na (6 h): 138.2 meq/L
- PL (6 h): 129.8 mg/dL
- RALB (6 h): 3.6 g/dL
- TBIL (6 h): 0.4 mg/dL
- TC (6 h): 79.4 mg/dL
- TG (6 h): 34.8 mg/dL
- TP (6 h): 5.5 g/dL
- gamma-GTP (6 h): 1.8 IU/L
- TERMINAL_BW (9 h): 189.4 g
- APTT (9 h): 17 s
- Bas (9 h): 0%
- Eos (9 h): 0.6%
- Fbg (9 h): 224.4 mg/dL
- Hb (9 h): 13.1 g/dL
- Ht (9 h): 39.6%
- Lym (9 h): 71%
- MCH (9 h): 21.8 pg
- MCHC (9 h): 33%
- MCV (9 h): 66 fL
- Mono (9 h): 7.4%
- Neu (9 h): 21%
- PT (9 h): 14.1 s
- Plat (9 h): 100.8 x10_4/uL
- RBC (9 h): 600 x10_4/ul
- Ret (9 h): 10%
- WBC (9 h): 126.2 x10_2/uL
- KIDNEY_L (9 h): 0.8 g
- KIDNEY_R (9 h): 0.9 g
- KIDNEY_TOTAL (9 h): 1.7 g
- LIVER (9 h): 8 g
- A/G (9 h): 2
- ALP (9 h): 886 IU/L
- ALT (9 h): 41.2 IU/L
- AST (9 h): 93.2 IU/L
- BUN (9 h): 12.6 mg/dL
- CRE (9 h): 0.5 mg/dL
- Ca (9 h): 10.4 mg/dL
- Cl (9 h): 104.6 meq/L
- DBIL (9 h): 0.008 mg/dL
- GLC (9 h): 168.4 mg/dL
- IP (9 h): 10.4 mg/dL
- K (9 h): 4.4 meq/L
- LDH (9 h): 229.2 IU/L
- Na (9 h): 137.4 meq/L
- PL (9 h): 134.8 mg/dL
- RALB (9 h): 3.6 g/dL
- TBIL (9 h): 0.4 mg/dL
- TC (9 h): 84.8 mg/dL
- TG (9 h): 32.4 mg/dL
- TP (9 h): 5.4 g/dL
- gamma-GTP (9 h): 1.8 IU/L
- TERMINAL_BW (24 h): 186.6 g
- APTT (24 h): 21.2 s
- Bas (24 h): 0%
- Eos (24 h): 0.6%
- Fbg (24 h): 232 mg/dL
- Hb (24 h): 14.7 g/dL
- Ht (24 h): 44.9%
- Lym (24 h): 69.8%
- MCH (24 h): 21.2 pg
- MCHC (24 h): 32.8%
- MCV (24 h): 64.6 fL
- Mono (24 h): 1.8%
- Neu (24 h): 27.8%
- PT (24 h): 15.7 s
- Plat (24 h): 104.8 x10_4/uL
- RBC (24 h): 695.6 x10_4/ul
- Ret (24 h): 9%
- WBC (24 h): 91 x10_2/uL
- KIDNEY_L (24 h): 0.9 g
- KIDNEY_R (24 h): 0.9 g
- KIDNEY_TOTAL (24 h): 1.8 g
- LIVER (24 h): 9.3 g
- A/G (24 h): 2
- ALP (24 h): 1017.6 IU/L
- ALT (24 h): 137.2 IU/L
- AST (24 h): 713.8 IU/L
- BUN (24 h): 15.2 mg/dL
- CRE (24 h): 0.5 mg/dL
- Ca (24 h): 10.4 mg/dL
- Cl (24 h): 102.4 meq/L
- DBIL (24 h): 0.046 mg/dL
- GLC (24 h): 152 mg/dL
- IP (24 h): 8.5 mg/dL
- K (24 h): 4.7 meq/L
- LDH (24 h): 1117 IU/L
- Na (24 h): 135.8 meq/L
- PL (24 h): 142 mg/dL
- RALB (24 h): 3.8 g/dL
- TBIL (24 h): 0.3 mg/dL
- TC (24 h): 86.8 mg/dL
- TG (24 h): 64.6 mg/dL
- TP (24 h): 5.8 g/dL
- gamma-GTP (24 h): 1 IU/L
